Data taken from patent US7547513B2, “Mutants of deoxycytidine kinase having extended enzymatic activity” (priority 2001, dated 2009).
≈ marks a conversion by molar mass, not a printed value.

Legend:
[1] = test system: Escherichia coli β7334 Δdeo tdk cdd::Tn10 pSUTrc (dck allele: none); format: cell-based; settings: strain β7334, dck allele none; 18 h 37° C., MS medium + IPTG
Description: (§1) The culture was then diluted 100 times in the same medium supplemented with IPTG and distributed on 96-well microplates in a final volume of 100 μl in a series of dilutions from to 2 to 2 nucleotide analogues. Each analogue was tested twice. After incubation for 18 hours at 37° C. with stirring, the MIC was determined as corresponding to the lowest analogue concentration for which no turbidity was detectable.
(§2) The toxicity of nucleoside analogues, deviating either by the sugar or by the base, was evaluated in strains of genotype Δdeo tdk cdd expressing on a plasmid the different dckH alleles, wild-type allele, D133E, R104Q and double mutant.
(§3) The minimum inhibitory concentrations, expressed in microM, were determined as indicated in the section Materials and Methods.

[2] = test system: Escherichia coli β7338 Δdeo tdk cdd::Tn10 pSUDCK4 (dck:D133E-R104Q); format: cell-based; settings: strain β7338, dck allele D133E R104Q; 18 h 37° C., MS medium + IPTG
Description: as §1, §2, §3

[3] = test system: Escherichia coli β7337 Δdeo tdk cdd::Tn10 pSUDCK3 (dck:R104Q); format: cell-based; settings: for minimum inhibitory concentration (MIC): strain β7337, dck allele R104Q, 18 h 37° C., MS medium + IPTG
Description: (§4) The culture was then diluted 100 times in the same medium supplemented with IPTG and distributed on 96-well microplates in a final volume of 100 μl in a series of dilutions from to 2 to 2 nucleotide analogues. Each analogue was tested twice.
as §2, §3

[4] = test system: Escherichia coli β7336 Δdeo tdk cdd::Tn10 pSUDCK2 (dck:D133E); format: cell-based; settings: strain β7336, dck allele D133E; 18 h 37° C., MS medium + IPTG
Description: as §4, §2, §3

[5] = test system: Escherichia coli β7340 Δdeo tdk cdd::Tn10 (dckH wt, amkG wt); assay: microbe, parasite or virus in culture; format: cell-based; settings: strain β7340, dckH wt, amkG wt
Description: as §1
(§5) We jointly expressed, within the genetic context Δdeo tdk cdd each of the four alleles of dckH with each of the two wt and T39A alleles of amkG, and tested the toxicity of the different nucleoside analogues already tested previously (Table 4 below).
as §3

[6] = test system: Escherichia coli β7345 Δdeo tdk cdd::Tn10 (dckH wt, amkG T39A); assay: microbe, parasite or virus in culture; format: cell-based; settings: strain β7345, dckH wt, amkG T39A
Description: as §1, §5, §3

[7] = test system: Escherichia coli β7341 Δdeo tdk cdd::Tn10 (dckH D133E, amkG wt); assay: microbe, parasite or virus in culture; format: cell-based; settings: strain β7341, dckH D133E, amkG wt
Description: as §1, §5, §3

[8] = test system: Escherichia coli β7342 Δdeo tdk cdd::Tn10 (dckH R104Q, amkG wt); assay: microbe, parasite or virus in culture; format: cell-based; settings: strain β7342, dckH R104Q, amkG wt
Description: as §1, §5, §3

[9] = test system: Escherichia coli β7347 Δdeo tdk cdd::Tn10 (dckH R104Q, amkG T39A); assay: microbe, parasite or virus in culture; format: cell-based; settings: strain β7347, dckH R104Q, amkG T39A
Description: as §1, §5, §3

[10] = test system: Escherichia coli β7346 Δdeo tdk cdd::Tn10 (dckH D133E, amkG T39A); assay: microbe, parasite or virus in culture; format: cell-based; settings: strain β7346, dckH D133E, amkG T39A
Description: as §1, §5, §3

[11] = test system: Escherichia coli β7344 Δdeo tdk cdd::Tn10 (dckH none, amkG T39A); assay: microbe, parasite or virus in culture; format: cell-based; settings: strain β7344, dckH none, amkG T39A
Description: as §1, §5, §3

[12] = test system: Escherichia coli β7348 Δdeo tdk cdd::Tn10 (dckH D133E R104Q, amkG T39A); assay: microbe, parasite or virus in culture; format: cell-based; settings: strain β7348, dckH D133E R104Q, amkG T39A
Description: as §1, §5, §3

[13] = test system: Escherichia coli β7343 Δdeo tdk cdd::Tn10 (dckH D133E R104Q, amkG wt); assay: microbe, parasite or virus in culture; format: cell-based; settings: strain β7343, dckH D133E R104Q, amkG wt
Description: as §1, §5, §3

[14] = test system: Escherichia coli β7339 Δdeo tdk cdd::Tn10 (dckH none, amkG wt); assay: microbe, parasite or virus in culture; format: cell-based; settings: strain β7339, dckH none, amkG wt
Description: as §1, §5, §3

[15] = test system: Escherichia coli β7335 Δdeo tdk cdd::Tn10 pSUDCK1 (dck wt); format: cell-based; settings: strain β7335, dck allele wt; 18 h 37° C., MS medium + IPTG
Description: as §4, §2, §3

[16] = test system: bacteria of genotype Δdeo tdk p::dckH+ (β7134 cells); assay: Selection of the DCK mutants in vivo (mutagenesis of dck gene by promutagenic nucleosides); format: cell-based, Escherichia coli; settings: for frequency of colonies on solid rich medium with trimethoprim and thymidine after exposure: no colony in the absence of promutagenic nucleoside
Description: Selection of the DCK mutants in vivo: a 12-hour culture of the β7134 cells in MS medium supplemented with 50 mg/l of carbenicillin was diluted 100 times in the same medium and cultured with aeration until turbidity of 0.100 (600 nm) was reached. The culture was then diluted 25 times in the same medium with or without IPTG and supplemented with variable concentrations (5 to 30 μM) of the promutagenic nucleoside analogues disoG and disoA then cultured with aeration for 18 hours. The cells were rinsed then plated on MH dishes supplemented with trimethoprim, thymidine and IPTG. Colonies appeared after incubation for 36 hours at 37° C. No colony was obtained in the absence of nucleoside analogue.
We took advantage of the conditional mutating property of DCK in the presence of promutagenic nucleoside analogues in order to subject its own dck gene to an episode of mutagenesis in vivo. Thus, bacteria of genotype Δdeo tdk p::dckH+ were exposed either to 2′-deoxy-iso-adenosine (disoA) or to 2′ deoxy-iso-guanosine (disoG), then incubated on solid rich medium in the presence of trimethoprim and thymidine. Colonies appeared following the administration of the two compounds at a frequency of the order of 10^−8. No colony survived in the absence of promutagenic nucleoside.
These alleles are designated dckH*. A plasmid combining the two mutations in the same allele, dckH**, was constructed and introduced into the strain β7117 of genotype Δdeo tdk. This allowed the complementation of the tdk mutation, thus also expressing a thymidine kinase activity. The different alleles selected are itemized in Table 2 below.

[17] = sequenced mutant plasmids obtained independently

## NNc1ccn([C@H]2C[C@H](O)[C@@H](CO)O2)c(=O)n1 [amino-dC, N4-amino-2′-deoxycitidine]
[1]
  minimum inhibitory concentration (MIC): > (no toxicity could be detected at the highest analogue concentration, 1.28 mM)
[2]
  minimum inhibitory concentration (MIC): 20 µM
[3]
  minimum inhibitory concentration (MIC): 2.5 µM
[4]
  minimum inhibitory concentration (MIC): 20 µM
[5]
  minimum inhibitory concentration (MIC): 80 µM (≈ 19.4 µg/mL)
[6]
  minimum inhibitory concentration (MIC): > (no toxicity could be detected at the highest analogue concentration, 1280 microM)
[7]
  minimum inhibitory concentration (MIC): > (no toxicity could be detected at the highest analogue concentration, 1280 microM)
[8]
  minimum inhibitory concentration (MIC): ≦1.25 microM
[9]
  minimum inhibitory concentration (MIC): 5 µM (≈ 1.21 µg/mL)
[10]
  minimum inhibitory concentration (MIC): 640 µM (≈ 155 µg/mL)
[11]
  minimum inhibitory concentration (MIC): > (no toxicity could be detected at the highest analogue concentration, 1280 microM)
[12]
  minimum inhibitory concentration (MIC): 320 µM (≈ 77.5 µg/mL)
[13]
  minimum inhibitory concentration (MIC): 80 µM (≈ 19.4 µg/mL)
[14]
  minimum inhibitory concentration (MIC): > (no toxicity could be detected at the highest analogue concentration, 1280 microM)

## Nc1ccn([C@@H]2O[C@H](CO)[C@@H](O)[C@@H]2O)c(=O)n1 [araC, arabinocytidine]
[1]
  minimum inhibitory concentration (MIC): > (no toxicity could be detected at the highest analogue concentration, 1.28 mM)
[2]
  minimum inhibitory concentration (MIC): 320 µM
[3]
  minimum inhibitory concentration (MIC): 20 µM
[15]
  minimum inhibitory concentration (MIC): 160 µM
[4]
  minimum inhibitory concentration (MIC): 20 µM

## Nc1ncnc2c1ncn2[C@H]1CC[C@@H](CO)O1 [ddA]
[1]
  minimum inhibitory concentration (MIC): 80 µM
[2]
  minimum inhibitory concentration (MIC): 80 µM
[3]
  minimum inhibitory concentration (MIC): 80 µM
[15]
  minimum inhibitory concentration (MIC): 80 µM
[4]
  minimum inhibitory concentration (MIC): 80 µM

## O=c1[nH]cnc2c1ncn2[C@H]1CC[C@@H](CO)O1 [ddI]
[1]
  minimum inhibitory concentration (MIC): 80 µM
[2]
  minimum inhibitory concentration (MIC): 40 µM
[3]
  minimum inhibitory concentration (MIC): 20 µM
[15]
  minimum inhibitory concentration (MIC): 40 µM
[4]
  minimum inhibitory concentration (MIC): 40 µM

## Nc1ncc2ncn([C@H]3C[C@H](O)[C@@H](CO)O3)c2n1 [disoA, 2-amino-9-(2′-deoxy-β-D-ribofuranosyl)purine]
[1]
  minimum inhibitory concentration (MIC): > (no toxicity could be detected at the highest analogue concentration, 1.28 mM)
[2]
  minimum inhibitory concentration (MIC): > (no toxicity could be detected at the highest analogue concentration, 1.28 mM)
[3]; mutation R104Q
  effect of the mutation on toxicity: no effect
[4]
  minimum inhibitory concentration (MIC): 10 µM
[5]
  minimum inhibitory concentration (MIC): > (no toxicity could be detected at the highest analogue concentration, 1280 microM)
[6]
  minimum inhibitory concentration (MIC): > (no toxicity could be detected at the highest analogue concentration, 1280 microM)
[7]
  minimum inhibitory concentration (MIC): > (no toxicity could be detected at the highest analogue concentration, 1280 microM)
[8]
  minimum inhibitory concentration (MIC): > (no toxicity could be detected at the highest analogue concentration, 1280 microM)
[9]
  minimum inhibitory concentration (MIC): > (no toxicity could be detected at the highest analogue concentration, 1280 microM)
[10]
  minimum inhibitory concentration (MIC): 10 µM (≈ 2.51 µg/mL)
[11]
  minimum inhibitory concentration (MIC): > (no toxicity could be detected at the highest analogue concentration, 1280 microM)
[12]
  minimum inhibitory concentration (MIC): > (no toxicity could be detected at the highest analogue concentration, 1280 microM)
[13]
  minimum inhibitory concentration (MIC): 1280 µM (≈ 322 µg/mL)
[14]
  minimum inhibitory concentration (MIC): > (no toxicity could be detected at the highest analogue concentration, 1280 microM)
[16]
  frequency of colonies on solid rich medium with trimethoprim and thymidine after exposure: ~10^−8
[16]; [17]
  Frequency of mutation detected C → A, codon 133 GAC, Asp → Glu: 1/3
  Frequency of mutation detected C → G, codon 133 GAC, Asp → Glu: 1/3
  Frequency of mutation detected G → A, codon 133 CGA, Arg → Glu: 1/3

## Nc1nc(O)nc2c1ncn2[C@H]1C[C@H](O)[C@@H](CO)O1 [disoG, 2-hydroxy-6-amino-9-(2′-deoxy-β-D-ribofuranosyl)purine]
[1]
  minimum inhibitory concentration (MIC): > (no toxicity could be detected at the highest analogue concentration, 1.28 mM)
[2]
  minimum inhibitory concentration (MIC): > (no toxicity could be detected at the highest analogue concentration, 1.28 mM)
[5]
  minimum inhibitory concentration (MIC): > (no toxicity could be detected at the highest analogue concentration, 1280 microM)
[6]
  minimum inhibitory concentration (MIC): > (no toxicity could be detected at the highest analogue concentration, 1280 microM)
[7]
  minimum inhibitory concentration (MIC): > (no toxicity could be detected at the highest analogue concentration, 1280 microM)
[8]
  minimum inhibitory concentration (MIC): > (no toxicity could be detected at the highest analogue concentration, 1280 microM)
[9]
  minimum inhibitory concentration (MIC): > (no toxicity could be detected at the highest analogue concentration, 1280 microM)
[10]
  minimum inhibitory concentration (MIC): > (no toxicity could be detected at the highest analogue concentration, 1280 microM)
[11]
  minimum inhibitory concentration (MIC): > (no toxicity could be detected at the highest analogue concentration, 1280 microM)
[12]
  minimum inhibitory concentration (MIC): > (no toxicity could be detected at the highest analogue concentration, 1280 microM)
[13]
  minimum inhibitory concentration (MIC): > (no toxicity could be detected at the highest analogue concentration, 1280 microM)
[14]
  minimum inhibitory concentration (MIC): > (no toxicity could be detected at the highest analogue concentration, 1280 microM)
[16]
  frequency of colonies on solid rich medium with trimethoprim and thymidine after exposure: ~10^−8
[16]; [17]
  Frequency of mutation detected C → A, codon 133 GAC, Asp → Glu: 4/4
